Like-named read-outs stand apart in the source and are kept apart here.
Legend:
[1] = target: GDP-bound KRAS wild-type protein (Homo sapiens, UniProt P01116); experiment: Binding to KRAS by surface plasmon resonance (SPR), dissociation constant KD; conditions: 1:1 binding model
Summary of the method: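 Single-cycle kinetics on GDP-loaded biotin-Avi RAS captured to ~100–300 RU; 75 s ascending injections, 100 µL/min, 30°C. HBS pH 7.4 + 10 mM MgCl2/10 µM GDP/4% DMSO. 1:1 fit, KD.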

[2] = target: GDP-bound NRAS wild-type protein (Homo sapiens, UniProt P01111); experiment: Binding to NRAS by surface plasmon resonance (SPR), KD and KD ratio to KRAS
Sequence of GDP-bound NRAS wild-type protein (P01111 whole entry): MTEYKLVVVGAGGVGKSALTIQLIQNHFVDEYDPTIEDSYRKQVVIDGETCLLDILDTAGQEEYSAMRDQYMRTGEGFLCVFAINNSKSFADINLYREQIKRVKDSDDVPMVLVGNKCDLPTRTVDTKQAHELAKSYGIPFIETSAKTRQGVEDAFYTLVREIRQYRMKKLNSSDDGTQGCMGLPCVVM
Summary of the method: (§1)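 Biotinylated GDP-bound RAS was captured at about 100–300 RU. Running buffer: HBS pH 7.4, 10 mM MgCl2, 10 µM GDP, 1 mM DTT, 0.01% Tween 20, 4% DMSO.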

HRAS wild-type protein = HRAS wild-type protein (Homo sapiens, UniProt P01112); experiment: Binding to HRAS by surface plasmon resonance (SPR), KD and KD ratio to KRAS
Sequence of HRAS wild-type protein (P01112 whole entry): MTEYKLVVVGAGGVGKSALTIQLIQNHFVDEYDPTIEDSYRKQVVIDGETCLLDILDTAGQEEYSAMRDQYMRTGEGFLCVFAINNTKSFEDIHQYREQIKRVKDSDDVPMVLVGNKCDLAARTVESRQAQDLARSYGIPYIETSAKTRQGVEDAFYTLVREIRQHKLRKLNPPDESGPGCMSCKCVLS
Summary of the method: as §1

[3] = tested on: human lung cancer strain NCI-H441; experiment: NCI-H441 cell proliferation inhibitory activity (CellTiter-Glo, 4 days); type: cell-based; conditions: read-out: NCl-H441 IC50
Summary of the method: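 Step one: dispense the test compound in serial DMSO dilutions. Step three: add the reagent and measure […].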

[4] = ratio of KD for GDP-bound NRAS wild-type protein to KD for KRAS
[5] = ratio of KD for HRAS wild-type protein to KD for KRAS
[6] = ratio of KD with respect to GDP-bound NRAS wild-type protein to KD with respect to KRAS
[7] = ratio of KD with respect to HRAS wild-type protein to KD with respect to KRAS
[8] = 50% proliferation inhibitory concentration, four days

Sequence of GDP-bound KRAS wild-type protein (P01116 1-188 isoform P01116-2): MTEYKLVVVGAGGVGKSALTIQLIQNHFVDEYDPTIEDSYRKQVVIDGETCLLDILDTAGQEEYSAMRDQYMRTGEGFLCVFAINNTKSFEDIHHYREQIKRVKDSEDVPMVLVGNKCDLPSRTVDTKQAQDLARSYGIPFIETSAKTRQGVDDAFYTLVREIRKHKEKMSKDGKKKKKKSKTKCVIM

Kd [1] [nM]	IC50 ([3]; NCI-H441 cells, 4 days) [nM]	Kd ([1]; Single Cycle Kinetics) [nM]	IC50 [3, 8] [nM]	SMILES	NRAS /KRAS [2, 4]	HRAS /KRAS (HRAS wild-type protein; [5])	NRAS /KRAS [2, 6]	HRAS /KRAS (HRAS wild-type protein; [7])
0.35	7.7	–	–	CCOC[C@H]1C(=O)N[C@@H]([C@@H](C)CC)C(=O)N(C2CC2)CC(=O)N(C)[C@H]2C/C=C\CCN(C2=O)[C@@H](Cc2ccc(C)cc2)C(=O)N(C)CC(=O)N[C@@H](CCc2cc(F)c(C(F)(F)F)c(F)c2)C(=O)N2C[C@H](OCC)C[C@H]2C(=O)NC2(CC(C)(C)C2)C(=O)N(C)[C@@H](CC(C)(C)C)C(=O)N(C)[C@H](C(=O)N(C)C)CC(=O)N1C [PP2720]	A (a compound having 10 or more and less than 20 is denoted as A)	A (a compound having 10 or more and less than 20 is denoted as A)	–	–
–	–	0.77	110	CCO[C@@H]1C[C@H]2C(=O)NC3(CCC3)C(=O)N(C)[C@@H](C(CC)CC)C(=O)N(C)[C@H](C(=O)N(C)C)CC(=O)N(C)[C@@H](CC)C(=O)N[C@@H]([C@@H](C)CC)C(=O)N(C)CC(=O)N(C)[C@H]3C/C=C\CCN(C3=O)[C@@H](Cc3ccc(C(F)(F)F)cc3)C(=O)N(C)CC(=O)N[C@@H](CCc3cc(F)c(Cl)c(F)c3)C(=O)N2C1 [PP1230]	–	–	A (a compound having 10 or more and less than 20 is denoted as A)	A (a compound having 10 or more and less than 20 is denoted as A)
0.29	13.1	–	–	CC[C@H](C)[C@@H]1NC(=O)[C@H](COC)N(C)C(=O)C[C@@H](C(=O)N(C)C)N(C)C(=O)[C@H](C2CCCCC2)N(C)C(=O)C2(CC(C)(C)C2)NC(=O)[C@@H]2C[C@@H](OC(C)C)CN2C(=O)[C@H](CCc2ccc(Cl)c(Cl)c2)NC(=O)CN(C)C(=O)[C@H](Cc2ccc(C(F)(F)F)cc2)N2CC/C=C\C[C@@H](C2=O)N(C)C(=O)CN(C)C1=O [PP2662]	AA (a compound having 20 or more is denoted as AA)	A (a compound having 10 or more and less than 20 is denoted as A)	–	–
7.8	1050	–	–	CCC[C@H]1C(=O)N[C@@H](CC(C)C)C(=O)N2C[C@@H](OC)C[C@H]2C(=O)N(C)[C@H]2C/C=C\CCN(C2=O)[C@@H](Cc2ccc(C)cc2)C(=O)N(C)CC(=O)N[C@@H](CCc2ccc(C(F)(F)F)c(OC)c2)C(=O)N2C[C@H](OCC)C[C@H]2C(=O)NC2(CCC2)C(=O)N(C)[C@@H](C2CCCC2)C(=O)N(C)[C@H](C(=O)N(C)C)CC(=O)N1C [PP2548]	A (a compound having 10 or more and less than 20 is denoted as A)	B (a compound having 3 or more and less than 10 is denoted as B)	–	–
0.17	8.6	–	–	CCOC[C@H]1C(=O)N[C@@H]([C@@H](C)CC)C(=O)N(C)CC(=O)N(C)[C@H]2C/C=C\CCN(C2=O)[C@@H](Cc2ccc(C)cc2)C(=O)N(C)CC(=O)N[C@@H](CCc2ccc(C(F)(F)F)c(Cl)c2)C(=O)N2C[C@@H](C)C[C@H]2C(=O)NC2(CC(C)(C)C2)C(=O)N(C)[C@@H](C2CCCC2)C(=O)N(C)[C@H](C(=O)N(C)CC)CC(=O)N1C [PP2451]	A (a compound having 10 or more and less than 20 is denoted as A)	A (a compound having 10 or more and less than 20 is denoted as A)	–	–
–	–	0.17	48.3	CCO[C@@H]1C[C@H]2C(=O)NC3(CCC3)C(=O)N(C)[C@@H](C3CCCC3)C(=O)N(C)[C@H](C(=O)N(C)C)CC(=O)N(C)[C@@H](Cc3cccc(C#N)c3)C(=O)N[C@@H]([C@@H](C)CC)C(=O)N(C)CC(=O)N(C)[C@H]3CCCCCN(C3=O)[C@@H](Cc3ccc(C(F)(F)F)cc3)C(=O)N(C)CC(=O)N[C@@H](CCc3cc(F)c(C(F)(F)F)c(F)c3)C(=O)N2C1 [PP1172]	–	–	B (a compound having 3 or more and less than 10 is denoted as B)	B (a compound having 3 or more and less than 10 is denoted as B)

Source: patent publication EP4603105A1, “PHARMACEUTICAL COMPOSITION CONTAINING CYCLIC COMPOUND HAVING SELECTIVE KRAS INHIBITORY EFFECT AGAINST HRAS AND NRAS” (CHUGAI SEIYAKU KABUSHIKI KAISHA, priority 2022, dated 2024)
